Measured values: article PMC6013482, “Conformational switching of the pseudokinase domain promotes human MLKL tetramerization and cell death by necroptosis” (Nature Communications, 2018)
Positions count from the first letter of the chain named.

Assays:
Assay type in all cases: binding
MLKL [1] = target: T1, MLKL (Homo sapiens, UniProt Q8NB16, K157A); test: thermal shift assay with ATP titration
T1 construct: full-length hMLKL(2–471)
T1 sequence (Q8NB16 2-471 K157A): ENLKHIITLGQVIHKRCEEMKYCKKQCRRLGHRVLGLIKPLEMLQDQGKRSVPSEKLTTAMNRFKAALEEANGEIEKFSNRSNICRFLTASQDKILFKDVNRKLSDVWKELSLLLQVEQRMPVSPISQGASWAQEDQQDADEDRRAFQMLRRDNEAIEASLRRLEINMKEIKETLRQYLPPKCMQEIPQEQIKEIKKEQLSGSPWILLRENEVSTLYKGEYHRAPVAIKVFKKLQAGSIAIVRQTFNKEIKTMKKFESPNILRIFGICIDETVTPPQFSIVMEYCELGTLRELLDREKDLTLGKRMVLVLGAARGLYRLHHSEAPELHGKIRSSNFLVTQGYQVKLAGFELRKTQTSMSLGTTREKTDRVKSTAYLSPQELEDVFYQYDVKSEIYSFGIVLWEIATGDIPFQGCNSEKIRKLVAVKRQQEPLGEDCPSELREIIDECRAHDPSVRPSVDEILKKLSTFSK

MLKL [2] = target: T2, MLKL (Homo sapiens, UniProt Q8NB16, D107A/E111A); test: thermal shift assay with ATP titration
T2 construct: full-length hMLKL(2–471)
T2 sequence (Q8NB16 2-471 D107A/E111A): T1 sequence (Q8NB16 2-471 K157A) with D106A, E110A, A156K

MLKL [3] = target: T3, MLKL (Homo sapiens, UniProt Q8NB16, E258K); test: thermal shift assay with ATP titration
T3 construct: full-length hMLKL(2–471)
T3 sequence (Q8NB16 2-471 E258K): T1 sequence (Q8NB16 2-471 K157A) with A156K, E257K

MLKL [4] = target: T4, MLKL (Homo sapiens, UniProt Q8NB16); test: thermal shift assay (SYPRO Orange) with ATP titration, no divalent cations; supported by AUC
T4 construct: full-length hMLKL(2–471)
T4 sequence (Q8NB16 2-471): T1 sequence (Q8NB16 2-471 K157A) with A156K

MLKL [5] = target: T5, MLKL (Homo sapiens, UniProt Q8NB16, G330E); test: thermal shift assay with ATP titration
T5 construct: full-length hMLKL(2–471)
T5 sequence (Q8NB16 2-471 G330E): T1 sequence (Q8NB16 2-471 K157A) with A156K, G329E

MLKL [6] = target: T6, MLKL (Homo sapiens, UniProt Q8NB16, S358E/T357E); test: thermal shift assay with ATP titration
T6 construct: full-length hMLKL(2–471)
T6 sequence (Q8NB16 2-471 T357E/S358E): T1 sequence (Q8NB16 2-471 K157A) with A156K, T356E, S357E

MLKL [7] = target: T7, MLKL (Homo sapiens, UniProt Q8NB16, E351K); test: thermal shift assay with ATP titration; HDX-MS protection around the ATP pocket
T7 construct: full-length hMLKL(2–471)
T7 sequence (Q8NB16 2-471 E351K): T1 sequence (Q8NB16 2-471 K157A) with A156K, E350K

Question: For Nc1ncnc2c1ncn2[C@@H]1O[C@H](COP(=O)(O)OP(=O)(O)OP(=O)(O)O)[C@@H](O)[C@H]1O [ATP], which Kd (MLKL [1]) is on record?
Answer: 164 ± 31 µM

Question: What about the Kd (MLKL [2]) of the same compound?
Answer: 23 ± 2 µM

Question: What about the Kd (MLKL [3]) of the same compound?
Answer: 24 ± 2 µM

Question: What about the Kd (MLKL [4]) of the same compound?
Answer: 36 ± 4 µM

Question: What about the Kd (MLKL [5]) of the same compound?
Answer: 28 ± 6 µM

Question: And the Kd (MLKL [6])?
Answer: 56 ± 8 µM

Question: And the Kd (MLKL [7])?
Answer: 26 ± 6 µM
